{"source": "patent USRE38623E1", "about": "“Stabilization of ascorbic acid, ascorbic acid derivatives and/or extracts containing ascorbic acid for topical use” (Topix Pharmaceuticals, Inc., priority 1996, dated 2004)", "origin": "cited, not measured here", "note": "Read-outs that look alike come from different tables or passages of the source."}
{"smiles": "O=C1O[C@H]([C@@H](O)CO)C(O)=C1O", "note": "[L-ascorbic acid]", "values": [{"measurement": "potency after storage", "setting": "Darr '043 FIG. 1, after seven weeks, starting from 100 percent, L-ascorbic acid concentration of 1 percent", "result": 70, "unit": "%"}, {"measurement": "drop in potency", "setting": "Darr '043 FIG. 1, seven weeks at room temperature, L-ascorbic concentrations of 3, 5 and 10 percent", "result": "less than 10%"}, {"measurement": "drop in potency", "setting": "Darr '043 FIG. 1, seven weeks, L-ascorbic acid concentration of 1 percent", "result": "approximately 30%"}, {"measurement": "lost potency", "setting": "Darr '043 FIG. 2, all four samples, eight weeks at room temperature, stored in the dark", "result": "≥ 10", "unit": "%"}]}
